Patent US9211310B2, “Use of a Chinese medicine composition in preparing medicaments for treating secondary prevention of myocardial infarction” (TASLY PHARMACEUTICAL GROUP CO., LTD, priority 2010, dated 2015)

Test system: patients after acute myocardial infarction
Assay: TCM symptom score, total and single (chest pain, chest tightness, short breath, fatigue, palpitation, spontaneous perspiration, pale complexion), same clinical trial
Assay type: in vivo, human
Parameters: total score of TCM symptom, Mean / total score of TCM symptom, Min / total score of TCM symptom, Max / total score of TCM symptom, Md / change of total score of TCM symptom, Mean / change of total score of TCM symptom, Max / change of total score of TCM symptom, Md: scale not given here
Settings: PP
From the text: 3508 patients who were in accordance with the diagnostic standards of AMI for 28 days to 2 years and differentiated as Qi deficiency and blood stagnation syndrome by TCM were studied. 0.5 g Chinese medicine composition prepared by the method of EXAMPLE 1 (Coded as QSYQ) was administrated half an hour after meal, 3 times per day.
They included the overall survival time, angina pectoris score, TCM symptom score and life quality score, where angina pectoris score, TCM symptom score and life quality score were evaluated at randomization, in 1st, 3rd, 6th, 9th, 12th month after treatment and 18th month after follow-up.
The analysis method referred to the angina pectoris score.

CC(=O)Oc1ccccc1C(=O)O [Control group, aspirine]
pale complexion score 3, percent of patients (Baseline): (3.88%)
short breath score 0, % of patients (Baseline): (14.48%)
short breath score 0, number of patients (Baseline): 213
short breath score 3, % of patients (Baseline): (51.12%)
short breath score 3, number of patients (Baseline): 752
short breath score 6, % of patients (Baseline): (32.56%)
short breath score 6, number of patients (Baseline): 479
short breath score 9, % of patients (Baseline): (1.84%)
short breath score 9, number of patients (Baseline): 27
distribution of total score of TCM symptom: Medium, number of patients (Follow-up): 212
distribution of total score of TCM symptom: Medium, percentage of patients (Follow-up): (15.23%)
distribution of total score of TCM symptom: Mild, number of patients (Follow-up): 1177
distribution of total score of TCM symptom: Mild, percentage of patients (Follow-up): (84.55%)
distribution of total score of TCM symptom: Severe, number of patients (Follow-up): 3
distribution of total score of TCM symptom: Severe, percentage of patients (Follow-up): (0.22%)
fatigue score 0, % of patients (Follow-up): (42.80%)
fatigue score 0, number of patients (Follow-up): 597
fatigue score 2, % of patients (Follow-up): (52.97%)
fatigue score 2, number of patients (Follow-up): 739
fatigue score 4, % of patients (Follow-up): (4.01%)
fatigue score 4, number of patients (Follow-up): 56
fatigue score 6, % of patients (Follow-up): (0.22%)
fatigue score 6, number of patients (Follow-up): 3
pale complexion score 0, number of patients (Follow-up): 862
pale complexion score 0, percent of patients (Follow-up): (61.79%)
pale complexion score 1, number of patients (Follow-up): 452
pale complexion score 1, percent of patients (Follow-up): (32.40%)
pale complexion score 2, number of patients (Follow-up): 75
pale complexion score 2, percent of patients (Follow-up): (5.38%)
pale complexion score 3, number of patients (Follow-up): 6
pale complexion score 3, percent of patients (Follow-up): (0.43%)
palpitation score 0, number of patients (Follow-up): 613
palpitation score 0, percent of patients (Follow-up): (43.94%)
palpitation score 2, number of patients (Follow-up): 683
palpitation score 2, percent of patients (Follow-up): (48.96%)
palpitation score 4, number of patients (Follow-up): 94
palpitation score 4, percent of patients (Follow-up): (6.74%)
palpitation score 6, number of patients (Follow-up): 5
palpitation score 6, percent of patients (Follow-up): (0.36%)
short breath score 0, % of patients (Follow-up): (35.34%)
short breath score 0, number of patients (Follow-up): 493
short breath score 2, % of patients (Follow-up): (0.07%)
short breath score 2, number of patients (Follow-up): 1
short breath score 3, % of patients (Follow-up): (54.70%)
short breath score 3, number of patients (Follow-up): 763
short breath score 6, % of patients (Follow-up): (9.68%)
short breath score 6, number of patients (Follow-up): 135
short breath score 9, % of patients (Follow-up): (0.22%)
short breath score 9, number of patients (Follow-up): 3
spontaneous perspiration score 0, number of patients (Follow-up): 750
spontaneous perspiration score 0, percent of patients (Follow-up): (53.80%)
spontaneous perspiration score 1, number of patients (Follow-up): 578
spontaneous perspiration score 1, percent of patients (Follow-up): (41.46%)
spontaneous perspiration score 2, number of patients (Follow-up): 62
spontaneous perspiration score 2, percent of patients (Follow-up): (4.45%)
spontaneous perspiration score 3, number of patients (Follow-up): 4
spontaneous perspiration score 3, percent of patients (Follow-up): (0.29%)
total score of TCM symptom, Max (Follow-up): 32.00
total score of TCM symptom, Md (Follow-up): 7.00
total score of TCM symptom, Mean (Follow-up): 7.73
total score of TCM symptom, Min (Follow-up): 0.00
change of fatigue 0, % of patients (Follow-up-baseline): (42.99%)
change of fatigue 0, number of patients (Follow-up-baseline): 598
change of fatigue 2, % of patients (Follow-up-baseline): (37.60%)
change of fatigue 2, number of patients (Follow-up-baseline): 523
change of fatigue 4, % of patients (Follow-up-baseline): (11.00%)
change of fatigue 4, number of patients (Follow-up-baseline): 153
change of fatigue 6, % of patients (Follow-up-baseline): (2.01%)
change of fatigue 6, number of patients (Follow-up-baseline): 28
change of fatigue −2, % of patients (Follow-up-baseline): (6.18%)
change of fatigue −2, number of patients (Follow-up-baseline): 86
change of fatigue −4, % of patients (Follow-up-baseline): (0.22%)
change of fatigue −4, number of patients (Follow-up-baseline): 3
change of pale complexion 0, number of patients (Follow-up-baseline): 932
change of pale complexion 0, percent of patients (Follow-up-baseline): (67.29%)
change of pale complexion 1, number of patients (Follow-up-baseline): 414
change of pale complexion 1, percent of patients (Follow-up-baseline): (29.89%)
change of pale complexion −1, number of patients (Follow-up-baseline): 39
change of pale complexion −1, percent of patients (Follow-up-baseline): (2.82%)
change of palpitation 0, number of patients (Follow-up-baseline): 677
change of palpitation 0, percent of patients (Follow-up-baseline): (48.71%)
change of palpitation 1, number of patients (Follow-up-baseline): 516
change of palpitation 1, percent of patients (Follow-up-baseline): (37.12%)
change of palpitation 2, number of patients (Follow-up-baseline): 93
change of palpitation 2, percent of patients (Follow-up-baseline): (6.69%)
change of palpitation 3, number of patients (Follow-up-baseline): 14
change of palpitation 3, percent of patients (Follow-up-baseline): (1.01%)
change of palpitation −1, number of patients (Follow-up-baseline): 86
change of palpitation −1, percent of patients (Follow-up-baseline): (6.19%)
change of palpitation −2, number of patients (Follow-up-baseline): 3
change of palpitation −2, percent of patients (Follow-up-baseline): (0.22%)
change of palpitation −3, number of patients (Follow-up-baseline): 1
change of palpitation −3, percent of patients (Follow-up-baseline): (0.07%)
change of short breath 0, % of patients (Follow-up-baseline): (52.12%)
change of short breath 0, number of patients (Follow-up-baseline): 725
change of short breath 2, % of patients (Follow-up-baseline): (36.45%)
change of short breath 2, number of patients (Follow-up-baseline): 507
change of short breath 4, % of patients (Follow-up-baseline): (5.46%)
change of short breath 4, number of patients (Follow-up-baseline): 76
change of short breath 6, % of patients (Follow-up-baseline): (0.72%)
change of short breath 6, number of patients (Follow-up-baseline): 10
change of short breath −2, % of patients (Follow-up-baseline): (5.10%)
change of short breath −2, number of patients (Follow-up-baseline): 71
change of short breath −4, % of patients (Follow-up-baseline): (0.00%)
change of short breath −4, number of patients (Follow-up-baseline): 0
change of short breath −6, % of patients (Follow-up-baseline): (0.14%)
change of short breath −6, number of patients (Follow-up-baseline): 2
change of spontaneous perspiration 0, number of patients (Follow-up-baseline): 644
change of spontaneous perspiration 0, percent of patients (Follow-up-baseline): (46.33%)
change of spontaneous perspiration 1, number of patients (Follow-up-baseline): 451
change of spontaneous perspiration 1, percent of patients (Follow-up-baseline): (32.45%)
change of spontaneous perspiration 2, number of patients (Follow-up-baseline): 138
change of spontaneous perspiration 2, percent of patients (Follow-up-baseline): (9.93%)
change of spontaneous perspiration 3, number of patients (Follow-up-baseline): 31
change of spontaneous perspiration 3, percent of patients (Follow-up-baseline): (2.23%)
change of spontaneous perspiration −1, percent of patients (Follow-up-baseline): (8.35%)
change of spontaneous perspiration −2, number of patients (Follow-up-baseline): 8
change of spontaneous perspiration −2, percent of patients (Follow-up-baseline): (0.58%)
change of spontaneous perspiration −3, number of patients (Follow-up-baseline): 2
change of spontaneous perspiration −3, percent of patients (Follow-up-baseline): (0.14%)
change of total score of TCM symptom, Max (Follow-up-baseline): 27.00
change of total score of TCM symptom, Md (Follow-up-baseline): −5.00
change of total score of TCM symptom, Mean (Follow-up-baseline): −6.16
change of total score of TCM symptom, Min (Follow-up-baseline): −29.00
